The text below walks through data of article PMC12040169 (PLOS Biology, 2025).

The series is described as follows: in vitro. Particulars: human, hela cells, % viability.

Take `O=C(c1ccc2[nH]c(=O)[nH]c2c1)N1CCC2(CCN(C(=O)c3cc(F)c(F)cc3F)C2)C1` (centres unmarked) [CBK131407]: the viability at 28.5 h, 10 µM worked out at 95.9%.

As for `O=C(NC1CN2CCC1CC2)c1ncoc1-c1ccccc1` (centres unmarked) [CBK283888], the viability at 28.5 h, 10 µM was determined as 104%.

On to `CC(=O)c1c(C)oc2ccc(O)c(CN3CCOCC3)c12` [CBK160396], for which the viability at 28.5 h, 10 µM is 104%. The same measure, in the same setting: for `Cc1cc(N2CCCC2)c(F)cc1CN1CCC(CO)C1` (centres unmarked) [CBK282916] the value was 93.6%; for `COc1ccc(C(C)C)cc1-c1cc(Nc2cc(OC)c(OC)c(OC)c2)n2nccc2n1` [CBK037746], 103%; for `CCOc1ccccc1NC(=O)CN(C)S(=O)(=O)c1ccc2ccccc2c1` [CBK266874], 101%.

In the case of `CC1CCN(S(=O)(=O)c2ccc(NC(=O)CCn3c(=O)oc4ccccc43)cc2)CC1` [CBK268040], the viability at 28.5 h, 10 µM was 97.1%. `COc1cc(C=C2C(=O)NC(=S)NC2=O)cc(Br)c1OCc1c(C)no[n+]1[O-]` [CBK263475]: the viability at 28.5 h, 10 µM (bulk resorufin, single well) was 98.9%.

Consider `COCCCN(Cc1ccccn1)Cc1cc(F)ccc1F` [CBK282950], for which the viability at 28.5 h, 10 µM was 108%. Take `CC(=O)Nc1ccc(CNc2ncccc2OC(F)F)cc1` [CBK306016]: the viability at 28.5 h, 10 µM was 95%.

With `COC(=O)Nc1ncc(CN2CCCCC2)s1` [CBK268208], the viability at 28.5 h, 10 µM amounted to 111%. As for `Cc1sc2nc(SCCCN3C(=O)c4cccc5cccc(c45)C3=O)nc(N)c2c1C` [CBK264424], the viability at 28.5 h, 10 µM amounted to 76.6%. For the compound `CN(C)c1ccc([N+](=O)[O-])cc1/C=N/NC(=O)CCc1ccccc1O` [CBK263257], the viability at 28.5 h, 10 µM is 86.1%.

`Cc1c(C(=O)N2CCCC(c3cc4ncccc4[nH]3)C2)cnn1C` (centres unmarked) [CBK283420]: the viability at 28.5 h, 10 µM is 94.8%. Same read-out and setting: for `Cc1ccc(C2C(C(=O)c3ccccc3)=C(O)C(=O)N2CCC(=O)O)cc1` (centres unmarked) [CBK286642] the value was 81.1%; for `Cc1c(C(=O)C2=C(O)C(=O)N(Cc3cccnc3)C2c2cccnc2)cnn1-c1ccccc1` (centres unmarked) [CBK266543], 105%; for `Cc1[nH]c(=O)c(S(=O)(=O)c2ccccc2)c(C)c1Cl` [CBK018736], 83.1%. For the compound `Cc1ccc(C(=O)N2CN(C(=O)CN(C)CCN(C)C)CC2(C)C)cc1` [CBK091460C], the viability at 28.5 h, 10 µM amounted to 115%. `COc1ccc(OC)c2sc(NC(=O)c3ccc(Br)s3)nc12` [CBK287400]: the viability at 28.5 h, 10 µM was determined as 93.7%. On the same count and under the same terms, for `O=S(=O)(Nc1ccc(-c2nnn[nH]2)cc1)c1c(F)cccc1F` [CBK154734] the value was 92.2%; for `CN(C(=O)c1c[nH]nc1C1CCCN(Cc2ccnc3ccccc23)C1)C1CCCCC1` (centres unmarked) [CBK286491], 99.3%; for `Cc1ccc(S(=O)(=O)N2CCN(Cc3cc(Br)ccc3O)CC2)cc1` [CBK264242], 98.5%. For the compound `CSc1cc(C)c2c(c1)COC1(CCN(CC3CC3)CC1)O2` [CBK061383], the viability at 28.5 h, 10 µM is 94.1%.

Regarding `O=[N+]([O-])c1cc(/C=N/Nc2nc(N3CCOCC3)nc(N3CCOCC3)n2)c(O)c([N+](=O)[O-])c1` [CBK261237], the viability at 28.5 h, 10 µM amounted to 105%.

Consider `O=C(c1cc(S(=O)(=O)N2CCOCC2)ccc1Cl)N1CCCC(CO)C1` (centres unmarked) [CBK304236], for which the viability at 28.5 h, 10 µM turned out to be 104%. Take `COC[C@H]1CCCN1C(=O)[C@@H](C)C1CC[C@@]2(C)CC[C@H](NC(C)=O)[C@@H](C)[C@@H]2[C@H]1O` (some centres unmarked) [CBK289438]: the viability at 28.5 h, 10 µM is 110%. On the same count and under the same terms, for `Cc1cc(C[C@@H]2COC[C@H]2NCc2ccc(C)c(C)c2)on1` [CBK284883] the value was 106%; for `O=C1NC(c2ccccc2)=NC1(NS(=O)(=O)c1ccccc1)C(F)(F)F` (centres unmarked) [CBK267474], 88.3%; for `O=C(O)C1Nc2ccc(Br)cc2C2C=CCC12` (centres unmarked) [CBK026482], 92.1%. Turning to `COCCn1c(CO)nnc1[C@H]1C[C@@H](NC(=O)c2ccc(C)cc2F)C1` [CBK307296], the viability at 28.5 h, 10 µM was found to be 101%.

Consider `CC(=O)N1CCc2sccc2C1c1ccc(NC(=O)C2CC2)cc1` (centres unmarked) [CBK282907], for which the viability at 28.5 h, 10 µM was determined as 87.8%. For `Cc1nnnn1-c1ccc(CC(=O)N2CCc3sccc3C2c2ccco2)cc1` (centres unmarked) [CBK285705], the viability at 28.5 h, 10 µM was 88.2%. In the case of `Cc1cc(C)c(S(=O)(=O)N2CCC(C(=O)Nc3ccc(C(N)=O)cc3)CC2)c(C)c1` [CBK266424], the viability at 28.5 h, 10 µM turned out to be 91.7%. For `CC1CCN(Cc2ccc(-c3nnn(CC(=O)NCc4ccc(S(C)(=O)=O)cc4)n3)cc2)CC1` [CBK144152C], the viability at 28.5 h, 10 µM worked out at 94.3%.

Turning to `O=C(c1ccccc1)n1cc(-c2ccccn2)c(N2CCOCC2)n1` [CBK021010], the viability at 28.5 h, 10 µM was 100%. As to `COc1ccc(CCC(=O)Nc2ncccc2OCCCC#N)cc1` [CBK304957], the viability at 28.5 h, 10 µM was 105%. On the same count and under the same terms, for `NC(=O)c1ccc(-c2cc(Nc3ccc(CCO)cc3)ncn2)cc1` [CBK090773] the value was 102%; for `CCCN(C)Cc1ccc(-c2cn(CC(=O)NCc3ccc(C(F)(F)F)cc3)nn2)cc1` [CBK164719], 92.9%; for `CC(C)(CNC(=O)Cn1cccc(C(=O)NC2CCCCC2)c1=O)c1ccccc1F` [CBK286068], 89.6%. Take `N#CCCSCc1ccc(C(=O)O)o1` [CBK265858]: the viability at 28.5 h, 10 µM turned out to be 115%. Still for that read-out and setting: for `COCc1cc(C)nc(SCC(=O)O)c1C#N` [CBK270463] the value was 88.2%. Turning to `N#CC1(c2ccccc2)CCN(C(=O)c2ccccc2C(=O)c2ccccc2)CC1` [CBK091396], the viability at 28.5 h, 10 µM (bulk resorufin, single well) was 107%. Regarding `O=S(=O)(N1CCCCCC1)N1CCN(S(=O)(=O)N2CCOCC2)CC1` [CBK269152], the viability at 28.5 h, 10 µM amounted to 100%. Consider `Sc1nnc(-c2ccncc2)n1C1CCCCC1` [CBK288421], for which the viability at 28.5 h, 10 µM was determined as 105%.

For `CNc1nc2ccccc2n1CC(=O)c1ccccc1` [CBK262251B], the viability at 28.5 h, 10 µM worked out at 96%. As for `Cc1cc(C)n(-c2ccc(CN3C(=O)NC4(CCCC4)C3=O)cc2)n1` [CBK305796], the viability at 28.5 h, 10 µM was determined as 88.3%.

In the case of `CSCCN1CCN(c2nccnc2OC2CCCCC2)CC1` [CBK082843T], the viability at 28.5 h, 10 µM came out at 108%. Turning to `CC(C)c1nsc(NS(=O)(=O)Cc2ccccc2)n1` [CBK051188], the viability at 28.5 h, 10 µM is 112%. For the compound `COc1ccc(OC)c(-n2nnnc2SCC2CCCN(C)C2)c1` (centres unmarked) [CBK305386], the viability at 28.5 h, 10 µM was 84.2%. Same read-out and setting: for `Cc1nc(-c2cc3c(s2)CCN(CC(O)Cn2cccn2)C3)cs1` (centres unmarked) [CBK304458] the value was 102%; for `Cc1ccc(C2CCCN2C(=O)Cn2cccc(C(=O)NCc3ccccc3)c2=O)cc1C` (centres unmarked) [CBK286074], 89.5%.

With `O=C(O)C1CCCCC1c1nnc(S)[nH]1` (centres unmarked) [CBK266490], the viability at 28.5 h, 10 µM came to 96.4%. Turning to `O=C(Cn1cccn1)NC(Cc1ccsc1)c1cccnc1` (centres unmarked) [CBK285396], the viability at 28.5 h, 10 µM is 97%. Same read-out and setting: for `CCc1cc2c(=O)c(-c3cnn(-c4ccccc4)c3)c(C(F)(F)F)oc2c(CN2CCCCC2)c1O` [CBK264458] the value was 91.7%.

Regarding `CCn1cc(CN(CC(C)C)C(=O)c2c(C)nc3ccccn23)cn1` [CBK306862], the viability at 28.5 h, 10 µM was found to be 97.8%. Turning to `O=C(/C=C/c1c[nH]c2ccccc12)c1ccc(C(=O)/C=C/c2c[nH]c3ccccc23)cc1` [CBK264224], the viability at 28.5 h, 10 µM is 106%.
